Experimental data from US9334524B2, “Methods for improving and managing nucleoside reverse-transcriptase inhibition based treatment” (priority 2011, dated 2016).
Where two headings read alike, the source gives them in different places.

Experiments:
[1] = test system: HIV-1 reverse transcriptase; conditions: Strain A§§ (NT5C+, CNT2+), 200 μM, 72 hours
Method: HIV RT activity was determined in both strains as described in U.S. Pat. No. 5,714,313 as follows. Both HIV1 RT expressing strains were grown in SD-ura+glucose to saturation. 1 DO of saturated culture (about 10^7 cells) was seeded in 1 ml SGal-ura and grew for 6 hrs. Glucose was then added to stop RT activation. After 12 hours, induced cells were seeded at 0.2 DO/ml in SD-His media and incubated for 72 hours.

[2] = test system: HIV-1 reverse transcriptase; conditions: Strain A#§ (dCK+, CNT2+), 200 μM, 72 hours
Method: HIV RT activity was determined in both strains as described in U.S. Pat. No. 5,714,313 as follows. Both HIV1 RT expressing strains were grown in SD-ura+glucose to saturation. 1 DO of saturated culture (about 10^7 cells) was seeded in 1 ml SGal-ura and grew for 6 hrs. Glucose was then added to stop RT activation. After 12 hours, induced cells were seeded at 0.2 DO/ml in SD-His media and incubated for 72 hours. Incubations were performed at 30° C. with shaking Inhibition of HIV-1 RT activity was determined by measuring the inhibition of growth in the presence 200 μM concentration of ABC (Abacavir) or TFV (Tenofovir) inhibitors, as shown in Table II.

[3] = test system: HIV-1 reverse transcriptase; format: cell-based; conditions: for % Inhibition of HIV Reverse Transcriptase activity in yeast cells: Strain A (no dCK, no transporter), 200 μM, 72 hours incubation; for inhibition of cell growth, then reverse transcription (OD @ 600 nm): Strain A (not carrying dCK and OAT1), 100 μM, 72 hours, FIG. 1
[4] = test system: HIV-1 reverse transcriptase; format: cell-based; conditions: for % Inhibition of HIV Reverse Transcriptase activity in yeast cells: Strain A# (dCK+, CNT3+), 200 μM, 72 hours incubation; for inhibition of HIV RT enabled by expression of CNT3: transformed yeast cell expressing CNT3
[5] = test system: HIV-1 reverse transcriptase; format: cell-based; conditions: for inhibition of cell growth, then reverse transcription (OD @ 600 nm): Strain A# (dCK in genome, OAT1 plasmid), 100 μM, 72 hours, FIG. 1; for inhibition of HIV RT enabled by expression of OAT1: transformed yeast cell expressing OAT1
[6] = test system: HIV-1 reverse transcriptase; conditions: Strain B## (dCK+, OAT1+ in genome), 100 μM, 72 hours, FIG. 2
From the text: S. cerevisiae strain B (Mat a, URA+, HIS−, LEU+) was transformed, using the standard Lithium Acetate protocol, with a previously linearized by StuI restriction enzyme p426GPDhdCK plasmid that contains the nucleic acid sequences coding for dCK and ura3, and where linearization occurred within the ura3 open reading frame. The new strain (Strain B#) where integration of dCK occurred at the ura3 locus has the following phenotype (Mat a, URA−, HIS−, LEU+, dCK+).
Strain B# was genetically modified by standard methods through transformation with a PCR amplified DNA fragment. This nucleic acid fragment contains the nucleic acid sequence coding for OAT1 transporter flanked by 5′ and 3′ non-coding regions of the leu2 locus. The new modified strain where dCK and OAT1 are integrated in the yeast genome, Strain B## (Mat a, URA−, HIS−, LEU−, dCK+, OAT1+), was transformed with the plasmid pHART21 described in U.S. Pat. No. 5,714,313. HIV-1 RT activity in Strain B## was determined as described in U.S. Pat. No. 5,714,313 after 72 hours incubation in the presence of 100 μM of either AZT, ddC, ddI or d4T.

SMILES | % Inhibition of HIV-1 Reverse transcriptase in modified yeast cells [1] [%] | % Inhibition of HIV-1 Reverse transcriptase in modified yeast cells [2] [%] | % Inhibition of HIV Reverse Transcriptase activity in yeast cells [3] [%] | inhibition of cell growth, then reverse transcription (OD @ 600 nm) [3] | % Inhibition of HIV Reverse Transcriptase activity in yeast cells [4] [%] | inhibition of HIV RT enabled by expression of CNT3 [4] | inhibition of cell growth, then reverse transcription (OD @ 600 nm) [5] | inhibition of HIV RT enabled by expression of OAT1 [5] | inhibition of cell growth (% inhibition), then reverse transcription, absorbance at 600 nm [6]
Nc1nc(NC2CC2)c2ncn([C@H]3C=C[C@@H](CO)C3)c2n1 [ABC, Abacavir] | 0 | 87 |  |  |  |  |  |  | 
Cc1cn([C@H]2C[C@H](N=[N+]=[N-])[C@@H](CO)O2)c(=O)[nH]c1=O [AZT, Zidovudine] |  |  | 0 | can not inhibit cell growth | 31 | good inhibition | inhibits cell growth | good inhibition | inhibits cell growth
CC(C)OC(=O)OCOP(=O)(CO[C@H](C)Cn1cnc2c(N)ncnc21)OCOC(=O)OC(C)C [TFV, Tenofovir] | 0 | 96 |  |  |  |  |  |  | 
Cc1cn([C@H]2C=C[C@@H](CO)O2)c(=O)[nH]c1=O [d4T, Stavudine] |  |  | 0 | can not inhibit cell growth | 56 | good inhibition | inhibits cell growth | good inhibition | inhibits cell growth
Nc1ccn([C@H]2CC[C@@H](CO)O2)c(=O)n1 [ddC, Zalcitabine] |  |  |  | can not inhibit cell growth |  |  | inhibits cell growth | good inhibition | inhibits cell growth
O=c1[nH]cnc2c1ncn2[C@H]1CC[C@@H](CO)O1 [ddI, Didanosine] |  |  |  | can not inhibit cell growth |  |  | inhibits cell growth | good inhibition | inhibits cell growth
